Laboratory results from patent publication US20220380385A1, “PYRIMIDINE FIVE-MEMBERED NITROGEN HETEROCYCLIC DERIVATIVE, PREPARATION METHOD THEREOF AND PHARMACEUTICAL USE THEREOF” (TUOJIE BIOTECH(SHANGHAI) CO., LTD., priority 2019, published 2022).

Key:
[1] = In vivo pharmacokinetics in rats (gavage); design: species or system SD rats; settings: original drug, rat, 7.5 mpk
Protocol: (§1) Rats were used as the test animals. The plasma drug concentration at different times after the rats were given the compounds of the invention by gavage was determined by using the LC/MS/MS method. The in vivo pharmacokinetic behavior of the compounds of the present invention in rats was studied, and pharmacokinetic characteristics thereof were evaluated.
Test animals: 3 healthy, 6-8 weeks old male SD rats in each group
A certain amount of drug was weighed, and 0.5% by mass of hypromellose, 0.1% by volume of Tween 80 and 99.4% by volume of water were added thereto to formulate a white suspension at 1 mg/mL.
SD rats were fasted overnight, then the drug was administered by gavage. The dosage of reference 1 was 7.5 mg/kg, and the dosage of Example 1 was 5 mg/kg.
(§2) Rats were administered the compounds of the present invention by gavage. At 0.25, 0.5, 1, 2, 4, 8 and 24 hours after administration, 0.2 mL of blood was collected from the jugular vein and placed in a test tube containing EDTA-K2. The tube was centrifuged at 4° C., 4000 rpm for 5 minutes to separate the plasma, which was stored at −75° C.
Determination of the content of the test compounds in rat plasma after administration of different concentrations of drugs by gavage: 50 μL of rat plasma at each time after administration was taken, and 200 μL of a solution of the internal standard dexamethasone in acetonitrile (50 ng/mL). The mixture was mixed by vortexing for 30 seconds, centrifuged at 4° C., 4700 rpm for 15 minutes. The supernatant of the plasma samples were collected and diluted three times with water, and 2.0 μL was taken for the LC/MS/MS analysis.

[2] = In vitro metabolic stability in rat liver microsomes; assay type: in vitro ADME; settings: rat liver microsomes (male Wistar Han), NADPH, 37° C.; read-out: Intrinsic clearance rate
Protocol: The concentration of the compound in the reaction system was determined by LC/MS/MS, so as to calculate the intrinsic clearance rate of the test compound and to evaluate the in vitro metabolic stability in rat liver microsomes.
222.5 μL, 1.1236 mg/mL of a mixed solution of rat liver microsomes (male Wistar Han strain, purchased from Corning, catalog number 452511) and 25 μL, 10 mM of NADPH were added into the incubation plate. The mixture was mixed by vortexing for 10 seconds. The plate was incubated in a water bath at 37° C. for 8 minutes. 2.5 μL, 100 μM of the test compound or positive control was added to the incubation plate to start the reaction. The mixture was mixed by vortexing for 12 seconds, and incubated in a water bath at 37° C. The reaction was stopped by transferring 20 μL of the incubation system to a stop plate containing 100 μL of cold stop solution at 0.5, 5, 10, 15, 20 and 30 minutes. The mixture was mixed by vortexing for 2 minutes. The stop plate was centrifuged at 4000 rpm for 20 minutes, then left to stand at 4° C. for 30 minutes, and then centrifuged at 4000 rpm for 20 minutes. 40 μL of the supernatant of each compound was transferred to a 96-well injection plate, and 160 μL of pure water was added to dilute the samples.
The obtained samples were quantified by ion chromatogram, and the residual rate was calculated according to the peak area of the test compounds or positive control. The slope k was determined by linear regression of the natural logarithm of the residual rate to the incubation time by using Microsoft Excel.
The in vitro half-life (in vitro t1/2) was calculated from the slope: in vitro t1/2=−(0.693/k)
The following equation was used to convert in vitro half-life into intrinsic clearance rate (in vitro CLint, μL/min/mg protein):
in vitro CLint=(0.693/t1/2)×(incubation volume (L)/protein amount (mg))

[3] = In vivo pharmacokinetics in cynomolgus monkeys (gavage); settings: male, plasma, po, 5 mg/kg, original drug, cynomolgus monkey, 5 mpk
Protocol: as §1, with “Cynomolgus monkeys” for “Rats”, “cynomolgus monkeys” for “rats”
Test animals: 3 healthy, 2-5 years old male cynomolgus monkeys in each group;
Administration by gavage: a certain amount of drug was weighed, and 0.5% by mass of hypromellose, 0.1% by volume of Tween 80 and 99.4% by volume of water were added thereto to formulate a white suspension at 1 mg/mL.
The cynomolgus monkeys were fasted overnight, and then the drug was administered by gavage at a dose of 5 mg/kg.
as §2, with “Cynomolgus monkeys were” for “Rats were”, “the peripheral” for “the jugular”, “at 2 to 8°” for “at 4°”, “C., 2000” for “C., 4000”, “for 10” for “for 5”
Determination of the content of the test compounds in cynomolgus monkey plasma after administration of different concentrations of drugs by gavage: 55 μL of cynomolgus monkey plasma at each time after administration was taken, and 200 μL of a solution of the internal standard verapamil or dexamethasone in acetonitrile. The mixture was mixed by vortexing for 30 seconds, centrifuged at 4° C., 3900 rpm for 15 minutes. The supernatant of the plasma samples were collected and diluted three times with water, and 15 μL was taken for LC/MS/MS analysis.

[4] = target: T1, full-length SHP2 (aa 1-593) (Homo sapiens, UniProt Q06124); experiment: Activity on SHP2 phosphatase (DiFMUP fluorescence)
T1 sequence (Q06124 1-593): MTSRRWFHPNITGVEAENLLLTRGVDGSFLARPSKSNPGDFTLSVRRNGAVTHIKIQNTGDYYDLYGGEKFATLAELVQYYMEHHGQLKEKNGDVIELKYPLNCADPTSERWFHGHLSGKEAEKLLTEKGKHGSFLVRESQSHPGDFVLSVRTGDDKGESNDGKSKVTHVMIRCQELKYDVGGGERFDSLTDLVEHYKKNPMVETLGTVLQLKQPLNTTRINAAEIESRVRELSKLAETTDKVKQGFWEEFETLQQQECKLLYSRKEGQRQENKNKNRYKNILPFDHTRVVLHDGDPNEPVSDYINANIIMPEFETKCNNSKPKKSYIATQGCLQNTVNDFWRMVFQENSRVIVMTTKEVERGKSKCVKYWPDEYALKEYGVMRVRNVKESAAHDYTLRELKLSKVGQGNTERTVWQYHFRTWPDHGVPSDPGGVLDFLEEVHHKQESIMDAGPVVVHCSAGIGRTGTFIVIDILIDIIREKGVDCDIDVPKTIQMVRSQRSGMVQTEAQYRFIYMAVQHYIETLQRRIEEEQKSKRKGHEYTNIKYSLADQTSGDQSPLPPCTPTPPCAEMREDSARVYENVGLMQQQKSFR
Protocol: 0.2 nM recombinantly expressed full-length SHP2 (aa 1-593), 0.5 nM activated polypeptide IRS1 with dual phosphorylation sites (sequence: H2N-LN(pY)IDLDLY(dPEG8)LST(pY)ASINFQK-amide), and a series of concentrations of the test compound (final concentrations of 1 μM, 0.3 μM, 0.1 μM, 0.03 μM, 0.01 μM, 0.003 μM, 0.001 M, 0.0003 μM, 0.0001 μM and 0.00003 μM) were added into the phosphatase reaction solution (60 mM HEPES, PH 7.5 0.005% Brij-35, 75 mM NaCl, 75 mM KCl, 1 mM EDTA, 5 mM DTT), followed by shaking (350 rpm) at room temperature for 30 minutes. Then the reaction substrate DiFMUP was added at a final concentration of 30 μM, and the reaction solution was reacted at room temperature for 30 minutes. Then the phosphatase reaction was stopped by adding 5 μL of the reaction stop solution (60 mM HEPES, pH 7.5, 0.2% SDS). Ex358 nm/Em455 fluorescence value was read on the fluorescence plate reader MD SpectraMax.
The IC50 value of compounds was calculated by using the four-parameter logit method. […] Different concentrations correspond to different inhibition rates of phosphatase activity. A reverse curve was plotted and the IC50 of the inhibitors was calculated from the curve. The IC50 of compounds was calculated by using Primer premier 6.0.

CYP3A4/5 = experiment: CYP inhibition in mixed human liver microsomes, CYP3A4/5 (midazolam); assay type: in vitro ADME; settings: mixed human liver microsomes (150 donors), pH 7.4, probe midazolam (3 μM), mixed human liver microsomes 0.2 mg/mL, read-out: Median inhibitory concentration (IC50) CYP 3A4/5
Protocol: (§3) Mixed human liver microsomes from 150 donors (purchased from Corning, catalog number 452117) were used to evaluate the representative substrate metabolic responses of the five main human CYP subtypes (CYP1A2, CYP2C9, CYP2C19, CYP2D6 and CYP3A4/5). The influence of different concentrations of test compounds on the metabolic responses of phenacetin (CYP1A2), diclofenac sodium (CYP2C9), S-mephenytoin (CYP2C19), bufurolol hydrochloride (2D6) and midazolam (CYP3A4/5) was determined by liquid chromatography tandem mass spectrometry (LC/MS/MS).
(§4) 200 μL of the reaction system (100 mmol/L phosphate buffer, pH 7.4, containing 0.3% DMSO, 0.6% acetonitrile and 0.1% methanol by volume respectively) with 30 µM phenacetin, 10 μM diclofenac sodium, 35 μM S-mephenytoin, 5 μM bufurolol hydrochloride, 3 μM midazolam, 1 mM NADPH, test compound (at a concentration of 0.1, 0.3, 1, 3, 10 and 30 μmol/L respectively) or positive compound or blank control and mixed human liver microsomes (0.2 mg/mL) was incubated at 37° C. for 5 minutes. […]
(§5) The peak area was calculated based on the chromatograms. The residual activity ratio (%) was calculated using the following equation: […]
(§6) The CYP median inhibitory concentration (IC50) was calculated by Excel XLfit 5.3.1.3.

CYP2C19 = target: T2, CYP2C19 (Homo sapiens, UniProt P33261); experiment: CYP inhibition in mixed human liver microsomes, CYP2C19 (S-mephenytoin); assay type: in vitro ADME; settings: mixed human liver microsomes 0.2 mg/mL, S-mephenytoin; read-out: Median inhibitory concentration (IC50) CYP 2C19
T2 construct: Mixed human liver microsomes from 150 donors; tissue Corning 452117; host or cells: pooled human liver microsomes (150 donors)
T2 sequence (P33261 whole entry): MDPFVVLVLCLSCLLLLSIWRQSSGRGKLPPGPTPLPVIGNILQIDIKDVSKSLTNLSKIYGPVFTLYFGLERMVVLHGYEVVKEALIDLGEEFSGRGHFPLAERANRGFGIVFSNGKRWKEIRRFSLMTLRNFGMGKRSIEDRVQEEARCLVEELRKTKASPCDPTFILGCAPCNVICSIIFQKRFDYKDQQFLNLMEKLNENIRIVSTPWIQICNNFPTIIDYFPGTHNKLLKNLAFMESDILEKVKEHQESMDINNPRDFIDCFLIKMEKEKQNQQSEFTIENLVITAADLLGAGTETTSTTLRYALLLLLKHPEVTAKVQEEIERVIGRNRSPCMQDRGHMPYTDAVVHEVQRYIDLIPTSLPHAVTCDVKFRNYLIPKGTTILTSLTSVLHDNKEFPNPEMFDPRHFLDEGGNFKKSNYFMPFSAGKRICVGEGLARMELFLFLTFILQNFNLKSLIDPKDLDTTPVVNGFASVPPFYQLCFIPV
Protocol: as §3, §4, §5, §6

CYP2D6 = target: T3, CYP2D6 (Homo sapiens, UniProt P10635); experiment: CYP inhibition in mixed human liver microsomes, CYP2D6 (bufurolol hydrochloride); assay type: in vitro ADME; settings: mixed human liver microsomes 0.2 mg/mL, bufurolol hydrochloride; read-out: Median inhibitory concentration (IC50) CYP 2D6
T3 construct: Mixed human liver microsomes from 150 donors; tissue Corning 452117; host or cells: pooled human liver microsomes (150 donors)
T3 sequence (P10635 whole entry): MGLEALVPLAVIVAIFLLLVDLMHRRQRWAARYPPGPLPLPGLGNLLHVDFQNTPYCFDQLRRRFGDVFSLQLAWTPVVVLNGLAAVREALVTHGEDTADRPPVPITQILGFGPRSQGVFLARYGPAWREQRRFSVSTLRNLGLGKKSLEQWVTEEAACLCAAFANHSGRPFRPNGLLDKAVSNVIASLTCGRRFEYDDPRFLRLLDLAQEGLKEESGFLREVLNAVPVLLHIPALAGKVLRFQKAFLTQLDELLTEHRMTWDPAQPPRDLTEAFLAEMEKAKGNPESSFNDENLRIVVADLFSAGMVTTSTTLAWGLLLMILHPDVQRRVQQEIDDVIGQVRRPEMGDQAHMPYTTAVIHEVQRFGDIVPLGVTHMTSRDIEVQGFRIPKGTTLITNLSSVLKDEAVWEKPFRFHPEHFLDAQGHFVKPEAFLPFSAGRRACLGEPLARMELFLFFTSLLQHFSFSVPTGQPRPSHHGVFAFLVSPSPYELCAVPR
Protocol: as §3, §4, §5, §6

CYP2C9 = target: T4, CYP2C9 (Homo sapiens, UniProt P11712); experiment: CYP inhibition in mixed human liver microsomes, CYP2C9 (diclofenac sodium); assay type: in vitro ADME; settings: mixed human liver microsomes 0.2 mg/mL, diclofenac sodium; read-out: Median inhibitory concentration (IC50) CYP 2C9
T4 construct: Mixed human liver microsomes from 150 donors; tissue Corning 452117; host or cells: pooled human liver microsomes (150 donors)
T4 sequence (P11712 whole entry): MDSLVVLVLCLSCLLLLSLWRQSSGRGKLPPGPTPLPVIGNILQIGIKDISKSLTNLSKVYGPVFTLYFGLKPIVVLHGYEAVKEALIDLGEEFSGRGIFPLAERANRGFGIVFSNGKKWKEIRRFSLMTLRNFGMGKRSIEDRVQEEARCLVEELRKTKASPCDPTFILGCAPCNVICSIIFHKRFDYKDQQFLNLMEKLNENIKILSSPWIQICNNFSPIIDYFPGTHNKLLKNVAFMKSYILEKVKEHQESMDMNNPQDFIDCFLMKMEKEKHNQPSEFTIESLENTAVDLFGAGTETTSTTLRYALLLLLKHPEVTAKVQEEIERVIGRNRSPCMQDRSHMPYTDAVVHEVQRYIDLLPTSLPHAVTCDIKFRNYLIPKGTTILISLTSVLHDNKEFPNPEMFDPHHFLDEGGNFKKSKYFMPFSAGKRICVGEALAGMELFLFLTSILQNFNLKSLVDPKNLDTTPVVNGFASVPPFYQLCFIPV
Protocol: as §3, §4, §5, §6

CYP1A2 = target: T5, CYP1A2 (Homo sapiens, UniProt P05177); experiment: CYP inhibition in mixed human liver microsomes, CYP1A2 (phenacetin); assay type: in vitro ADME; settings: mixed human liver microsomes 0.2 mg/mL, phenacetin; read-out: Median inhibitory concentration (IC50) CYP 1A2
T5 construct: Mixed human liver microsomes from 150 donors; tissue Corning 452117; host or cells: pooled human liver microsomes (150 donors)
T5 sequence (P05177 1-516): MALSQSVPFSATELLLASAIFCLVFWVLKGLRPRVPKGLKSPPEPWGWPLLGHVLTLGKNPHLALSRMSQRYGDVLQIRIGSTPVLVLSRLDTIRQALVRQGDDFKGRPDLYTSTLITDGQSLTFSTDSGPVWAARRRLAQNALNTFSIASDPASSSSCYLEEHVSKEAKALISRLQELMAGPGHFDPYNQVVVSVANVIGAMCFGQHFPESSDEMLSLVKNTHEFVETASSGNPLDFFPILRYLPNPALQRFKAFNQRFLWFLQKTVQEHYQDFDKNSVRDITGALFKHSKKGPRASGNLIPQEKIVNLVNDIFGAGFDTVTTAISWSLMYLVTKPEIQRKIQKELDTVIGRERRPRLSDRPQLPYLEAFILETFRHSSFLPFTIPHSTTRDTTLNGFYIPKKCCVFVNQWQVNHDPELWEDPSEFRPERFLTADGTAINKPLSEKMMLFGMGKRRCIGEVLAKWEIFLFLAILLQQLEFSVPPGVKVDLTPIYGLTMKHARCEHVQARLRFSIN
Protocol: as §3, §4, §5, §6

CNc1nccc(Sc2c(C)nc(N3CCC4(CC3)Cc3ncccc3[C@H]4N)n3ccnc23)c1Cl [Example 2, (S)-1′-(8-((3-Chloro-2-(methylamino)pyridin-4-yl)thio)-7-methylimidazo[1,2-c]pyrimidin-5-yl)-5,7-dihydrospiro[cyclopenta[b]pyridine-6,4′-piperidin]-5-amine]
AUC ([1]; male, SD, plasma, po, 7.5 mg/kg, read-out: Area under curve AUC): 4250 ng·h/mL
Cmax ([1]; male, SD, plasma, po, 7.5 mg/kg, read-out: Maximum blood conc. Cmax): 500 ng/mL
Area under curve of unit dose AUC/D [1]: 567 ng*h/mL per mg/kg
microsomal CLint at 1 µM [2]: 19.2 µL/min/mg
AUC ([3]; read-out: Area under curve AUC): 71000 ng·h/mL
Cmax ([3]; read-out: Maximum blood conc. Cmax): 12700 ng/mL

[2H]C([2H])Nc1nccc(Sc2c(C)nc(N3CCC4(CC3)Cc3ncccc3[C@H]4N)n3ccnc23)c1Cl [Example 5, (S)-1′-(8-((3-Chloro-2-((methyl-d2)amino)pyridin-4-yl)thio)-7-methylimidazo[1,2-c]pyrimidin-5-yl)-5,7-dihydrospiro[cyclopenta[b]pyridine-6,4′-piperidin]-5-amine]
IC50 [4]: 0.0048 µM
microsomal CLint at 1 µM [2]: 26.6 µL/min/mg

[2H]CNc1nccc(Sc2c(C)nc(N3CCC4(CC3)Cc3ncccc3[C@H]4N)n3ccnc23)c1Cl [Example 6, (S)-1′-(8-((3-Chloro-2-((methyl-d)amino)pyridin-4-yl)thio)-7-methylimidazo[1,2-c]pyrimidin-5-yl)-5,7-dihydrospiro[cyclopenta[b]pyridine-6,4′-piperidin]-5-amine]
IC50 [4]: 0.0047 µM
microsomal CLint at 1 µM [2]: 34.7 µL/min/mg

Nc1nccc(Sc2cnc(N3CCC4(CC3)Cc3ncccc3[C@H]4N)n3ccnc23)c1Cl [Example 1, (S)-1′-(8-((2-Amino-3-chloropyridin-4-yl)thio)imidazo[1,2-c]pyrimidin-5-yl)-5,7-dihydrospiro[cyclopenta[b]pyridine-6,4′-piperidin]-5-amine]
IC50 at 5 min (CYP3A4/5): > 20 µM
IC50 (CYP2C19): > 20 µM
IC50 (CYP2D6): > 20 µM
IC50 (CYP2C9): > 20 µM
IC50 (CYP1A2): 9.21 µM
